The source of these data is patent US20230339977A1, “SUBSTITUTED HETEROARYL COMPOUND, AND COMPOSITION AND APPLICATION THEREOF” (SUNSHINE LAKE PHARMA CO., LTD., priority 2020, published 2023).

Like-named read-outs stand apart in the source and are kept apart here.

A short description of data set [1]: Stability in human liver microsomes. It is filed as in vitro ADME. Here is the method: (§1) The stability of the compounds of the present invention in human and rat liver microsomes can be tested by the following two methods:
(§2) Human or rat liver microsomes were incubated in polypropylene tubes in duplicate wells. A typical incubation mixture included human or rat liver microsomes (0.5 mg protein/mL), target compound (5 µM), and a total volume of 200 µL of NADPH (1.0 mM) potassium phosphate buffer (PBS, 100 mM, pH 7.4), the compound was dissolved in DMSO and diluted with PBS, the final concentration of the DMSO solution was 0.05%. Human or rat liver microsomes were incubated at 37° C. in an air-connected water bath. After pre-incubation for 3 minutes, […] was added to start the reaction. The same volume of ice-cold acetonitrile was added to terminate the reaction at different time points (0, 5, 10, 15, 30 and 60 min). Samples were stored at -80° C. until LC/MS/MS analysis.
(§3) The linear concentration range of each target compound was determined, and then, the concentration of the target compounds in the human or rat liver microsomes incubation mixture was determined by LC/MS/MS method.
(§4) Parallel incubations were performed using denatured microsomes as a negative control and dextromethorphan (70 µM) as a positive control. Negative control was incubated at 37° C., the reaction was terminated at different time points (0, 15 and 60 minutes); positive control was incubated at 37° C., the reaction was terminated at different time points (0, 5, 10, 15, 30 and 60 minutes). Positive and negative control samples were used in each assay to ensure the integrity of the microsomal incubation system.
(§5) In addition, the stability data of the compounds of the present invention in human or rat liver microsomes can also be obtained from the following tests:
(§6) Human or rat liver microsomes were incubated in polypropylene tubes in duplicate wells. A typical incubation mixture included human or rat liver microsomes (final concentration: 0.5 mg protein/mL), target compound (final concentration: 1.5 µM) and a total volume of 30 µL of K-buffer solution (containing 1.0 mM EDTA, 100 mM, pH 7.4). Compounds were dissolved in DMSO and diluted with K-buffer solution, the final concentration of DMSO was 0.2%. […]
(§7) For each reaction, in vivo intrinsic hepatic clearance CLint is extrapolated by plotting the compound concentration (expressed as a percentage) in human or rat liver microsomal incubations as a percentage relative to time zero (ref.: Naritomi Y, Terashita S, Kimura S, Suzuki A, Kagayama A, Sugiyama Y. Prediction of human hepatic clearance from in vivo animal experiments and in vitro metabolic studies with liver microsomes from animals and humans. Drug Metabolism and Disposition 2001, 29: 1316-1324.).
For orientation: Liver microsomes are vesicles of endoplasmic reticulum, rich in cytochrome P450 enzymes.

Data set [2] can be described thus: Stability in rat liver microsomes. It is filed as in vitro ADME. Here is the method: as §1, §2, §3, §4, §5, §6, §7
Data set [3] can be described thus: Pharmacokinetic evaluation in rats after intravenous injection and oral administration. The data set is classed as in vivo. Conditions: rat, plasma; for AUC(0-t): read-out: PK AUClast; for Cmax: read-out: PK Cmax; for half-life: read-out: PK T½ (converted). Here is the method:
The analytical LC/MS/MS system includes an Agilent 1200 series vacuum degasser, a binary syringe pump, an orifice plate autosampler, a column oven, and an Agilent G6430 triple quadrupole mass spectrometer with an electrospray ionization (ESI) source.
Agilent XDB-C18, 2.1 × 30 mm, 3.5 µM column was used to analysis, 5 µL sample was injected. Analytical conditions: Mobile phases were 0.1% formic acid in water (A) and 0.1% formic acid in methanol (B). The flow rate was 0.4 mL/min.
In addition, Agilent 6330 series LC/MS/MS spectrometer was used for analysis, equipped with G1312A binary syringe pump, G1367A automatic sampler and G1314C UV detector; LC/MS/MS spectrometer used ESI radiation source. Optimum analysis was achieved using standards with appropriate cation model processing and MRM conversion for each analyte. A Capcell MP-C18 column, 100 × 4.6 mm I.D., 5 µM (Phenomenex, Torrance, California, USA) was used during the analysis. Mobile phase was 5 mM ammonium acetate, 0.1% methanol in water (A): 5 mM ammonium acetate, 0.1% methanol in acetonitrile (B) (70/30, v/v); flow rate was 0.6 mL/min; column temperature was maintained at room temperature; 20 µL of sample was injected.
The present invention evaluates the pharmacokinetic studies of the compounds of the present invention in mice, rats, dogs or monkeys. The compounds of the present invention were administered in the form of aqueous solution or 2% HPMC + 1% Tween-80 aqueous solution, 5% DMSO + 5% saline solution, 4% MC or capsule. For intravenous administration, animals were dosed at about 0.5, 0.6, 1 or 2 mg/kg. The oral doses (p.o.) were 5 or 10 mg/kg for rats and mice, and 10 mg/kg for dogs and monkeys. Bloods (0.3 mL) were taken at time points 0.25, 0.5, 1.0, 2.0, 3.0, 4.0, 6.0, 8.0, 12 and 24 h and centrifuged at 3,000 or 4,000 rpm for 10 min. Plasma solutions were collected and stored at -20° C. or -70° C. until LC/MS/MS analysis as described above. […] Table 2 is the experimental results of the pharmacokinetic characteristics of the compounds provided in the examples of the present invention in rats.

A further data set concerns JAK2/TYK2. As to the kind of experiment: Cell level activity test of JAK2/TYK2 (IL-12 mediated IFNγ expression in NK92 cells). It is filed as cell-based. Conditions: NK92, 24 h, IFNγ in supernatant by ELISA, NK92 cells with IL-12, 24 h. The source says: TYK2 belongs to the JAK family, and can accept the ligand acting on the coupled receptor signal to regulate downstream signal activator of transcription (STAT) phosphorylation. Phosphorylation of STAT can regulate the expression of downstream related genes, leading to changes in physiological functions such as cell proliferation and differentiation. IL-12 mediates IFNγ expression in NK92 cells through JAK2/TYK2.
Therefore, by inhibiting TYK2 activity, inhibition of this cascade pathway leads to a decrease in IFNγ expression. However, IL-2 can induce NK92 proliferation and produce IFNγ through receptor-coupled […], so the influence of IL-2 needs to be ruled out. In this experiment, the activity of compounds on JAK2/TYK2 was evaluated by detecting the expression of IFNγ at various compound concentrations.
The test compound was dissolved in DMSO, prepared into a 20 mM stock solution, and stored at -20° C. for future use. The mother solution was diluted 10 times with DMSO to make a 2 mM solution, then diluted with medium to an initial concentration of […], and then diluted 3-fold with medium containing 5% DMSO to obtain a prepared concentration gradient of […], 33333.3 nM, 11111.1 nM, 3703.70 nM, 1234.57 nM, 411.523 nM, 137.174 nM, 45.7247 nM, 15.2416 nM; 10 ul of the above-mentioned concentration of drugs were added into a 96-well plate to obtain the final concentrations of […], 3333.3 nM, 1111.1 nM, 370.4 nM, 123.5 nM, 41.1 nM, 13.7 nM, 4.6 nM, 1.52 nM;
NK92 cells were resuscitated and cultured, 16 h before the experiment, the medium was replaced with interleukin-free medium. The mixture was centrifuged and IL-12 medium was added to resuspend the cells, seeded 95 ul in a 96-well plate at a density of 20,000 cells/well, 10 ul of the above gradual dilution was added and incubated for 24 h, centrifuged to take the supernatant, diluted 3-fold with pure water, and the IFNγ concentration of the supernatant was detected by ELISA, the IC50 value was calculated.
For orientation: An ELISA detects its analyte on a solid surface through an enzyme-linked reagent.

Where [4] appears, read: pH 7.4, in vivo intrinsic hepatic clearance extrapolated.

In general, CLint scaled refers to the capacity of the preparation to metabolise the compound, expressed as a volume cleared per time. The term Cmax denotes the maximum level reached in the sampled fluid or tissue. As for `COc1cc(-c2cn(C)c3cnc(NC(C)=O)cc23)nc2c1COC21CCOC1` (centres unmarked) [Example 1, N-(3-(4′-methoxy-4,5-dihydro-2H,5′H-spiro[furan-3,7′-furo[3,4-b]pyridin]-2′ -yl)-1-methyl-1H-pyrrolo[2,3-c]pyridin-5-yl)acetamide], the half-life was 1.92 h in data set [1] (human, pH 7.4, read-out: Human T½); 2.56 h in data set [2] (rat, pH 7.4, read-out: Rat T½); 1.24 h in data set [3] (IV 1 mg/kg); 3.11 h in data set [3] (PO 5 mg/kg). The results for the CLint scaled in data set [1] (setting [4]) and in data set [2] (setting [4]) were 15.1 mL/min/kg and 16.2 mL/min/kg, respectively. Moreover, the AUC(0-t) in data set [3] (IV 1 mg/kg) was found to be 1650 ng·h/mL; in data set [3] (PO 5 mg/kg), 8810 ng·h/mL. Besides, the Cmax in data set [3] (IV 1 mg/kg) was 1170 ng/mL; in data set [3] (PO 5 mg/kg), 2650 ng/mL. Moreover, the bioavailability in data set [3] (oral bioavailability, PO 5 mg/kg) came to 107%.

Usually IC50 stands for the concentration needed to halve the response being measured. Low readings indicate greater potency, high ones weaker potency. In the data set with JAK2/TYK2, `CC(=O)Nc1cc2c(-c3cc(NCCC(C)(C)O)c4c(n3)C3(CCOC3)OCC4)cn(C)c2cn1` (centres unmarked) [Example 48, N-(3-(4′-((3-Hydroxy-3-Methylbutyl)Amino)-4,5,5′,6′-Tetrahydro-2H-Spiro[Furan-3,8′-Pyrano[3,4-b]Pyridin]-2′-yl)-1-Methyl-1H-Pyrrolo[2,3-c]Pyridin-5-yl)Acetamide] displayed an IC50 of 115 nM.

In the case of `CC(=O)Nc1cc2c(-c3cc(OCCC(C)(C)O)c4c(n3)C3(CCOC3)OCC4)cn(C3COC3)c2cn1` (centres unmarked) [Example 49, N-(3-(4′-(3-Hydroxy-3-Methylbutoxy)-4,5,5′,6′-Tetrahydro-2H-Spiro[Furan-3, 8′-Pyrano[3,4-b]Pyridin]-2′-yl)-1-(Oxetan-3-yl)-1H-Pyrrolo[2,3-c]Pyridin-5-yl)Acetamide], in the data set on JAK2/TYK2, the IC50 turned out to be 68.1 nM.

In turn, `CC(=O)Nc1cc2c(-c3cc(OCCC(C)(C)O)c4c(n3)C3(CCOC3)OCC4)cn(C(C)C)c2cn1` (centres unmarked) [Example 50, N-(3-(4′-(3-Hydroxy-3-Methylbutoxy)-4,5,5′,6′-Tetrahydro-2H-Spiro[Furan-3, 8′-Pyrano[3,4-b]Pyridin]-2′-yl)-1-Isopropyl-1H-Pyrrolo[2,3-c]Pyridin-5-yl)Acetamide] displayed an IC50 in the data set on JAK2/TYK2 of 47 nM.
